From PMC3170264 (Retrovirology, 2011)

How the values were obtained:
HIV-2 IN Y143C = HIV-2 IN Y143C (Human immunodeficiency virus type 2 subtype B, UniProt Q89928, I1218V/I1301V/I1372V/M1455R/N1185G/N1438H/R1202K/R1392Q/T1348V/T1383A/V1460M/Y1311C); details: Y143C in N1 background; 200 nM IN
Description: (§1) Mutations were introduced in the HIV-2 N1 background by mutagenesis. […] Activity is expressed as a % of control without drug. Experiments were performed two times.
(§2) The IN coding sequences from the viruses isolated from the plasma of HIV-2-infected patients N1 to N3 and T1 to T7 were amplified by PCR and sequenced according to a previously described procedure. PCR products corresponding to the entire IN sequence were amplified again with the following specific primers containing NdeI and BamH I restriction sites at their 5' ends. Primer 1: N1, N2, T1, T2, 5'-[…]-3'; N3, 5'-[…]-3'; T3-T7, 5'-[…]-3'. Primers 2: N1, 5'-[…]-3'; N2, 5'-[…]-3'; N3, 5'-[…] The amplicons were then ligated into the TA cloning plasmid pGEM-T easy (Promega, Madison, USA). Single (E92Q, T97A, G140S, Q148R, Y143C, N155H) and double (G140S/Q148R, Y143C/N155H, E92Q/Y143C and T97A/Y143C) mutations were introduced into the HIV-2 wild-type N1 sequence by mutagenesis using the QuickChange II site-directed mutagenesis kit (Agilent Technologies, Santa Clara, USA) according to the manufacturer instructions. NdeI - BamH fragments covering the IN coding sequence were then inserted into the expression vector pET-15b.
(§3) The activity of wild-type and mutated INs was determined in vitro, as previously described. Briefly, oligonucleotides (ODN) mimicking the end of the U5 long terminal repeat of the viral genome were radiolabeled with T4 polynucleotide kinase (Biolabs, Ipswich, USA) and [γ-^32P] ATP (3,000 Ci/mmol) (Amersham, GE Healthcare, USA), then purified on a Sephadex G-10 column (GE Healthcare, USA). Double-stranded ODNs were obtained by mixing equimolar amounts of complementary strands in the presence of 100 mM NaCl.

HIV-2 IN N155H = HIV-2 IN N155H (Human immunodeficiency virus type 2 subtype B, UniProt Q89928, I1218V/I1301V/I1372V/M1455R/N1185G/N1323H/N1438H/R1202K/R1392Q/T1348V/T1383A/V1460M); details: N155H in N1 background; 200 nM IN
Description: as §1, §2, §3

HIV-2 IN G140S/Q148R = HIV-2 IN G140S/Q148R (Human immunodeficiency virus type 2 subtype B, UniProt Q89928, G1308S/I1218V/I1301V/I1372V/M1455R/N1185G/N1438H/Q1316R/R1202K/R1392Q/T1348V/T1383A/V1460M); details: G140S/Q148R in N1 background; 200 nM IN
Description: as §1, §2, §3

HIV-2 IN T97A/Y143C = HIV-2 IN T97A/Y143C (Human immunodeficiency virus type 2 subtype B, UniProt Q89928, I1218V/I1301V/I1372V/M1455R/N1185G/N1438H/R1202K/R1392Q/T1265A/T1348V/T1383A/V1460M/Y1311C); details: T97A/Y143C in N1 background; 200 nM IN
Description: as §1, §2, §3

HIV-2 IN E92Q = HIV-2 IN E92Q (Human immunodeficiency virus type 2 subtype B, UniProt Q89928, E1260Q/I1218V/I1301V/I1372V/M1455R/N1185G/N1438H/R1202K/R1392Q/T1348V/T1383A/V1460M); details: E92Q in N1 background; 200 nM IN
Description: as §1, §2, §3

HIV-2 N1 IN = molecular target: T1, HIV-2 N1 IN (Human immunodeficiency virus type 2 subtype B, UniProt Q89928, I1218V/I1301V/I1372V/M1455R/N1185G/N1438H/R1202K/R1392Q/T1348V/T1383A/V1460M); assay: strand transfer inhibition, IN from clinical isolate N1 (wild-type reference); type: biochemical; details: IN from RAL-naive patient N1; 200 nM IN; 37°C; Mg2+
T1 construct: His-tag (pET-15b) (N); made in house; host or cells: Escherichia coli BL21-CodonPlus (DE3)-RIPL
T1 sequence (Q89928 1169-1464 N1185G/R1202K/I1218V/I1301V/T1348V/I1372V/T1383A/R1392Q/N1438H/M1455R/V1460M limits assumed): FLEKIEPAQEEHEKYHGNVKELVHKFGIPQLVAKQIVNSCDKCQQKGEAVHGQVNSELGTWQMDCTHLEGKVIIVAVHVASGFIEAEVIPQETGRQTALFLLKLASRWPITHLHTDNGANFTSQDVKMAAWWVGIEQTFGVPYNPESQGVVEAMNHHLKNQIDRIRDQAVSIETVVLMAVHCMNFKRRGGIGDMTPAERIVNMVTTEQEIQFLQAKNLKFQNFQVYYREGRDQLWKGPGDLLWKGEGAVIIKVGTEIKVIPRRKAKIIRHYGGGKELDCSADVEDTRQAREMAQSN
Description: The ST reaction was performed using a ^32P-labeled oligonucleotide mimicking the preprocessed substrate. Drug concentrations are indicated above each lane. […] Activity is expressed as a % of control without drug. Experiments were repeated two times.
(§4) The HIV-2 ODN substrate sequences were: UA: 5'-[…]-3'; U5B: 5'-[…]-3'; U5B-2: 5'-[…] […]-3'.

HIV-2 IN E92Q/Y143C = molecular target: T2, HIV-2 IN E92Q/Y143C (Human immunodeficiency virus type 2 subtype B, UniProt Q89928, E1260Q/I1218V/I1301V/I1372V/M1455R/N1185G/N1438H/R1202K/R1392Q/T1348V/T1383A/V1460M/Y1311C); assay: strand transfer inhibition, site-directed mutant in N1 background; type: biochemical; details: E92Q/Y143C double mutant in N1 background; 200 nM IN
T2 construct: His-tag (pET-15b) (N); made in house; host or cells: Escherichia coli BL21-CodonPlus (DE3)-RIPL
T2 sequence (Q89928 with tags, fused parts or gaps N1185G/R1202K/I1218V/E1260Q/I1301V/Y1311C/T1348V/I1372V/T1383A/R1392Q/N1438H/M1455R/V1460M): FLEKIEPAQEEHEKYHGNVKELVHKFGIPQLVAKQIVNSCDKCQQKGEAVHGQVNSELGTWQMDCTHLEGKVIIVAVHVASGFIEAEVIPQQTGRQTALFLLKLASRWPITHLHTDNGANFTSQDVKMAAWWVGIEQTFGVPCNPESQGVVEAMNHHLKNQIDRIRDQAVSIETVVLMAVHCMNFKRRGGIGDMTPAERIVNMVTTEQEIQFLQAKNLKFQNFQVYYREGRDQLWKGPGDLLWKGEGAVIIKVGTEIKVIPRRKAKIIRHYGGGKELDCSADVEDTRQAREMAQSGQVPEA
Description: Activity is expressed as a % of control without drug. Experiments were performed two times.
Primer 1: N1, N2, T1, T2, 5'-[…]-3'; N3, 5'-[…] […]-3'; T3-T7, 5'-[…]-3'. Primers 2: N1, 5'-[…]-3'; N2, 5'-[…] […]-3'; N3, 5'-[…] C-3'; T1, T2, 5'-[…]-3'; T3-T7, 5'-GGATC […] -3'.
as §4

Cc1nnc(C(=O)NC(C)(C)c2nc(C(=O)NCc3ccc(F)cc3)c(O)c(=O)n2C)o1 [RAL, raltegravir]
resistance to RAL, strand transfer (HIV-2 IN Y143C): did not lead to significant resistance | resistance to RAL, strand transfer (HIV-2 IN N155H): high level of resistance | resistance to RAL, strand transfer (HIV-2 IN G140S/Q148R): highly resistant | resistance to RAL, strand transfer (HIV-2 IN T97A/Y143C): did not lead to detectable IN resistance | resistance to RAL, strand transfer (HIV-2 IN E92Q): did not confer significant resistance | IC50 (HIV-2 N1 IN): 23 nM | IC50 (HIV-2 IN E92Q/Y143C): 370 nM
